Experimental data reported in ChEMBL document CHEMBL2046443, “Desmethyl Macrolides: Synthesis and Evaluation of 4,10-Didesmethyl Telithromycin” (2012).
Values after ≈ are worked out from the molar mass of the structure shown.

Key:
Type in all cases: functional
Escherichia coli [1] = experiment: Antibacterial activity against wild type Escherichia coli DK/pKK3535
Escherichia coli [2] = experiment: Antibacterial activity against Escherichia coli SQ171 harboring 23S rRNA A2058G mutant
Escherichia coli [3] = experiment: Antibacterial activity against Escherichia coli DK harboring 23S rRNA A2058G mutant
Staphylococcus aureus [4] = experiment: Antibacterial activity against Staphylococcus aureus UCN14 harboring 23S rRNA A2058T mutant
Staphylococcus aureus [5] = experiment: Antibacterial activity against Staphylococcus aureus ATCC 33591 harboring ermA gene

Row | SMILES | MIC (Escherichia coli [1]) [µg/mL] | MIC (Escherichia coli [2]) [µg/mL] | MIC (Escherichia coli [3]) [µg/mL] | MIC (Staphylococcus aureus [4]) [µg/mL] | MIC (Staphylococcus aureus [5]) [µg/mL]
1 | CC[C@H]1OC(=O)[C@H](C)C(=O)C[C@@H](O[C@@H]2O[C@H](C)C[C@H](N(C)C)[C@H]2O)[C@@](C)(OC)CCC(=O)C[C@@H]2N(CCCCn3cnc(-c4cccnc4)c3)C(=O)O[C@@]21C | 32 (≈ 41.6 µM) | – | – | – | –
2 | CC[C@H]1OC(=O)[C@H](C)C(=O)C[C@@H](O[C@@H]2O[C@H](C)C[C@H](N(C)C)[C@H]2O)[C@](C)(OC)C[C@@H](C)C(=O)C[C@H]2N(CCCCn3cnc(-c4cccnc4)c3)C(=O)O[C@]12C | 8 (≈ 10.2 µM) | > 512 | 16 (≈ 20.4 µM) | > 256 | > 128
3 | CC[C@H]1OC(=O)[C@H](C)C(=O)[C@H](C)[C@@H](O[C@@H]2O[C@H](C)C[C@H](N(C)C)[C@H]2O)[C@](C)(OC)C[C@@H](C)C(=O)[C@H](C)[C@H]2N(CCCCn3cnc(-c4cccnc4)c3)C(=O)O[C@]12C [TELITHROMYCIN] | 0.5 (≈ 0.616 µM) | > 512 | 1 (≈ 1.23 µM) | > 128 | > 128
